Assay [1] has as its target Potassium voltage-gated channel subfamily KQT member 2 (Rattus norvegicus, UniProt O88943, W236L). Put plainly: KCNQ2 channel potentiators, dose response, mechanism study for KCNQ2 potentiator project, cell-based, automated electrophysiology (AID 2603). The class given is functional.
The target of assay [2] is T1, Long-chain-fatty-acid--AMP ligase FadD28 (Mycobacterium tuberculosis, UniProt P9WQ59).
T1 sequence (P9WQ59 whole entry): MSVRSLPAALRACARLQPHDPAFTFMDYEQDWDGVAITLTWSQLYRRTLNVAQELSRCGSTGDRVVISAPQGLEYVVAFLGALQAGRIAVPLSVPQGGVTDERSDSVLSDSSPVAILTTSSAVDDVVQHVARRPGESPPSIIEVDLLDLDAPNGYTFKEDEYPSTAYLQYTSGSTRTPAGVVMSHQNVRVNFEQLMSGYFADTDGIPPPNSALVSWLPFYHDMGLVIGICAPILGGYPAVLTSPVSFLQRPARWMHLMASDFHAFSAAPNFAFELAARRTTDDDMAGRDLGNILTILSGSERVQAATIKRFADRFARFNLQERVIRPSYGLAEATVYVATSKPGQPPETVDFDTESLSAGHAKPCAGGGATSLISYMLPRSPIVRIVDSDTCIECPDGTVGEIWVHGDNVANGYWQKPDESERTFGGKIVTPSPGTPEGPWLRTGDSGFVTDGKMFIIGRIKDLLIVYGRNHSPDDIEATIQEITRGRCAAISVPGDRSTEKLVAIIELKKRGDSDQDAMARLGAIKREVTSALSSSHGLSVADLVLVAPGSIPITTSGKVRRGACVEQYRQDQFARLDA
Put plainly: Fluorescence polarization aasay to screen for inhibitors that compete for the binding of FadD28 to a bisubstrate Measured in Biochemical System Using Plate Reader - 2147-01_Inhibitor_Dose_CherryPick_Activity. The assay is classed as functional, Mycobacterium tuberculosis H37Rv. Background: In fluorescence polarisation assays a small probe gives low polarisation when free and higher when bound to something large.

A short description of assay [3]: cytotoxicity in HEK-293T cells, dose response, cytotoxicity control for TCR NF-kB inhibitor project, luminescence, T-cell screen hits (AID 489026).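 Further: cells exposed to compound about 14 hours before the viability readout.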 The class given is functional, cell-based.
The nature of assay [4]: HEp-2 cell cytotoxicity, dose response, cytotoxicity control for RSV inhibitor project, HTS (AID 2410). The class given is functional. The conditions noted are these: human respiratory syncytial virus.
Assay [5] can be described thus: cells.
Assay [6] has as its system Vero. Put plainly: West Nile virus antiviral activity, cell-based, CPE readout (AID 1621). The assay is classed as functional. The conditions noted are these: Chlorocebus sabaeus.
In assay [7] the target is Protein-tyrosine kinase 2-beta (Homo sapiens, UniProt Q14289).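 Further: potency of inhibitors of PYK2 kinase phosphorylation of poly-GT substrate.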
Protein-tyrosine kinase 2-beta, sequence (Q14289 whole entry): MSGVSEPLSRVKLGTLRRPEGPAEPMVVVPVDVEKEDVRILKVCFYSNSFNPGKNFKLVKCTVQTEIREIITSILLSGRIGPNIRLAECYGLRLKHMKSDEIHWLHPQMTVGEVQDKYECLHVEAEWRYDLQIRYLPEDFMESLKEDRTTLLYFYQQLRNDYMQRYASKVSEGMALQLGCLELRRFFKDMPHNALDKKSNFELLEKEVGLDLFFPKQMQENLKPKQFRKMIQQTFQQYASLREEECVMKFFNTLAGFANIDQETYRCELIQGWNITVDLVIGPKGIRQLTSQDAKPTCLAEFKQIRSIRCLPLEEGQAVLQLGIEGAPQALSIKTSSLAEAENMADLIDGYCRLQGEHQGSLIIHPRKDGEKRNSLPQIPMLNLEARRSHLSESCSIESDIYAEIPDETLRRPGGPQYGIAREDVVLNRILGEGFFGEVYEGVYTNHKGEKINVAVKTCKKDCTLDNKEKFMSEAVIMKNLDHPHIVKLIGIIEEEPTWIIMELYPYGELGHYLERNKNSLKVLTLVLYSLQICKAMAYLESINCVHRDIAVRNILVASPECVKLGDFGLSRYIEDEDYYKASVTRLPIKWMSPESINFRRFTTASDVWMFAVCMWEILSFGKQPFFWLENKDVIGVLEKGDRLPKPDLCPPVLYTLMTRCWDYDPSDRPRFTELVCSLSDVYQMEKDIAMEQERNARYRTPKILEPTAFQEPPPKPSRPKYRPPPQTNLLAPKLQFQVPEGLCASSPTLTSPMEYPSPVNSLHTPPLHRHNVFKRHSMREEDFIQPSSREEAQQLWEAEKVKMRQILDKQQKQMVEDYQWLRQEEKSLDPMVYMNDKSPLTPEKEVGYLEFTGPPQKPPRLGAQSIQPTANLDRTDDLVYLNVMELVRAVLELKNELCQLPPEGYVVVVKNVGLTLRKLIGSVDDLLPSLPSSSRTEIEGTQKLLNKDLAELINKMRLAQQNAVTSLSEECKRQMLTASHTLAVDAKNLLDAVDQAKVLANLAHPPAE
The subject of assay [8] is Danio rerio. Put plainly: In Vivo Angiogenesis Dose-Response Confirmation. [Related pubchem assays: 732 (Assay preceding this confirmatory assay.)]. The class given is functional, organism-based.
In assay [9] the target is Transitional endoplasmic reticulum ATPase (Homo sapiens, UniProt P55072, C522A). Put plainly: Luminescence counterscreen assay for p97 inhibitors: dose response biochemical high throughput screening assay to identify inhibitors of the C522A mutant p97 ATPase: synthesized compounds. [Related pubchem assays: 1481, 1517, 1551 ]. For orientation: Counterscreens check selectivity or assay interference.
Transitional endoplasmic reticulum ATPase (Homo sapiens, UniProt P55072, C522A), sequence (P55072 2-806 C522A limits assumed): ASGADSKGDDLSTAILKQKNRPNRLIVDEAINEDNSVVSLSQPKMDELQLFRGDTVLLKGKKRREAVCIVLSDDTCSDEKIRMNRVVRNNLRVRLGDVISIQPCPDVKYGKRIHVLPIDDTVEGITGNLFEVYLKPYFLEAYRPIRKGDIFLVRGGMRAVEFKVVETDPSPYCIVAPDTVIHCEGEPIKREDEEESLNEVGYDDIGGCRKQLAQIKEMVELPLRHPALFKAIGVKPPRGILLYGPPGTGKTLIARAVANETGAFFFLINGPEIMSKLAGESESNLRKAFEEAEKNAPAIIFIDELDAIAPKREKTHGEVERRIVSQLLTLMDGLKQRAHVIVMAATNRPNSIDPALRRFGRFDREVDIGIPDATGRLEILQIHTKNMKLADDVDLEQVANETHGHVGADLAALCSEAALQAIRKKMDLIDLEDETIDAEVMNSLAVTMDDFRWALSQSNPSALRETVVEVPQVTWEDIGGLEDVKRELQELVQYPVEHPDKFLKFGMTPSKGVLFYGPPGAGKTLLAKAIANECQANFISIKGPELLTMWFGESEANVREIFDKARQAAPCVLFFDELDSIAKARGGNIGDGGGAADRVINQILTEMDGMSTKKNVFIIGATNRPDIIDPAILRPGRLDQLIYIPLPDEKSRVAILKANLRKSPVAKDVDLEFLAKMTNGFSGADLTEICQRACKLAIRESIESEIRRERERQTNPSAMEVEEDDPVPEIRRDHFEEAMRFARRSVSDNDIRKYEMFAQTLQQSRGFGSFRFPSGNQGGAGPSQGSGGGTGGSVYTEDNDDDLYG

In assay [10] the target is Transitional endoplasmic reticulum ATPase (Homo sapiens, UniProt P55072). Put plainly: Luminescence dose response biochemical high throughput screening assay for inhibitors of the p97 ATPase: synthesized compounds. [Related pubchem assays: 1481, 1517 ].
Transitional endoplasmic reticulum ATPase (Homo sapiens, UniProt P55072), sequence (P55072 whole entry): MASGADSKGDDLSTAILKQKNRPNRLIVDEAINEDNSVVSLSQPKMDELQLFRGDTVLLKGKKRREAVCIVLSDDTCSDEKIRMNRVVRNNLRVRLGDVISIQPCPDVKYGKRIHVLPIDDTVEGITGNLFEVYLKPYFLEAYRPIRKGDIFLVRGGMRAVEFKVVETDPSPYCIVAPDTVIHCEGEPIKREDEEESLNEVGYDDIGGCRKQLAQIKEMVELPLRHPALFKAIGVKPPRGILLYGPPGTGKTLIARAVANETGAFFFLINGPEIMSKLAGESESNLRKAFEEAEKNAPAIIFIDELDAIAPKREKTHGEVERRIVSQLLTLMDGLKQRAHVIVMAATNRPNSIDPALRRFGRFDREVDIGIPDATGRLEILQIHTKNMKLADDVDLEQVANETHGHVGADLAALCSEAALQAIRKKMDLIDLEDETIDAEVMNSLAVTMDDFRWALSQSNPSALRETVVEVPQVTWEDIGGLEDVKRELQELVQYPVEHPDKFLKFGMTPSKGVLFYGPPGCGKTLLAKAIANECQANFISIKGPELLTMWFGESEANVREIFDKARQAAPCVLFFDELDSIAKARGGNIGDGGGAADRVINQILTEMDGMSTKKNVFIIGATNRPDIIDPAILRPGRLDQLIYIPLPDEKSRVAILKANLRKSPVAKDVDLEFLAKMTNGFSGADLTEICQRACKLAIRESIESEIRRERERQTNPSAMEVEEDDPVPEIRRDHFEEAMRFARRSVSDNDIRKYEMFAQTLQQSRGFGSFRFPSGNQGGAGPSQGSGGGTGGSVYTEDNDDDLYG

The source made the active and inactive calls.

Potassium voltage-gated channel subfamily KQT member 2, sequence (O88943 whole entry W236L): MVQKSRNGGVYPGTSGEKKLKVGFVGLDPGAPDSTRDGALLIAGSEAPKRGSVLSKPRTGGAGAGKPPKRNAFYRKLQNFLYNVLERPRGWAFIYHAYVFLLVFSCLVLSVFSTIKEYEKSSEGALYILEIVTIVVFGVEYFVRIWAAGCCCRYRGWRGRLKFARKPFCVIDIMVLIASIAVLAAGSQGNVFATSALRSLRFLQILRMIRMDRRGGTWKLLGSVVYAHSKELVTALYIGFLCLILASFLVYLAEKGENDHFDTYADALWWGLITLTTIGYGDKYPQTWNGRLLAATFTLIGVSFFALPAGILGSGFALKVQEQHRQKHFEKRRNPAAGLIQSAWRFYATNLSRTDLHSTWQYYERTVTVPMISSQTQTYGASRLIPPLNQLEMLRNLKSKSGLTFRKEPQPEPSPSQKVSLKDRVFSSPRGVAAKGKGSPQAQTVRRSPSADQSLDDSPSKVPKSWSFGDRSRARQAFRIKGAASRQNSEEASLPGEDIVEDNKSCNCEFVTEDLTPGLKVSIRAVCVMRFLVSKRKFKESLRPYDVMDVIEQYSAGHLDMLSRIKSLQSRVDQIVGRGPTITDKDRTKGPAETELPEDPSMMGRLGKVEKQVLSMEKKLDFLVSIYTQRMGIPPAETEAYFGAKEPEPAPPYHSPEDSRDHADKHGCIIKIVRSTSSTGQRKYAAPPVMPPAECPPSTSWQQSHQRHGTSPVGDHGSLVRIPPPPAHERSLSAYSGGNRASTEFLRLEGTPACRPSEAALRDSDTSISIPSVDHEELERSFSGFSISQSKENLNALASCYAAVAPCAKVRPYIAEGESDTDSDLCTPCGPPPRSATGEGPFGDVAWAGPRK

The term EC50 denotes the concentration needed to bring the measured effect to its halfway point. What is called AC50 is the concentration at which the activity in the assay is half-maximal. On to `CC(C)n1c(O)c(N=Nc2ccc(Cl)c(C(=O)O)c2)c2ccccc21`, for which the concentration giving a half-maximal response (EC50) in [1] is 3.7 µM (active). Further, in assay [2], the AC50 is 35.7 µM (active).

As a reminder, the IC50 is the concentration that inhibits the measured activity by half. One may read the CC50 as the concentration at which the toxic effect on the cells reaches its halfway point. `CC(C)c1oc(=O)cc2c1[C@@H](O)[C@H]1OC(=O)[C@@]3(C)CC[C@@H](O)[C@@]2(C)C13` (stereo not given in full): the IC50 in [3] was > 80 µM (inactive); in assay [5], 12.2 µM (active); in [6], 17.4 µM (active). In addition, in [4], the CC50 is 10.4 µM (active).

With `Clc1ccc2[nH]cc(-c3nnnn3-c3ccccc3)c2c1`, the IC50 in assay [7] is on record as > 69.5 µM (not active).

Regarding `O=C1Nc2ccc(F)cc2/C1=C1/Nc2ccc(Br)cc2/C1=N\O`, the 50% inhibitory concentration (IC50) in [8] is 0.29 µM (not active).

Regarding `CCOC(=O)/C(C#N)=C/c1c[nH]c2ccc(C#N)cc12`, the IC50 in [9] and in assay [10] was > 50 µM (not active) each time.

The values are drawn from ChEMBL document CHEMBL1201862, “PubChem BioAssay data set” (2004).
